Values after ≈ are worked out from the molar mass of the structure shown. Like-named read-outs stand apart in the source and are kept apart here.
Assays:
[1] = tested on: MRSA (2658 RCMB); experiment: MIC against MRSA (2658 RCMB), broth dilution; assay type: cell-based, Staphylococcus aureus
In short: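 Broth dilution in cation-adjusted Mueller-Hinton broth with an inoculum of about 5×10^5 CFU/mL (from a 0.5 McFarland suspension), using triplicate serial dilutions. MIC was the lowest concentration with no visible growth by visual inspection, reported as the mean of triplicates.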

[2] = tested on: NRS119 (MRSA); experiment: MIC/MBC clinical isolate panel (Table 3); assay type: cell-based, S. aureus; details: Staphylococcus aureus, Table 3, NRS119 (MRSA)
Procedure: (§1) Bacteria were cultured in cation-adjusted Mueller Hinton broth in a 96-well plate. Compounds, using triplicate samples, were added to the plate and serially diluted. […] Plates were visually inspected and the MIC was categorized as the concentration at which no visible growth of bacteria was observed. The average of triplicate MIC determinations is reported.
(§2) A bacterial solution equivalent to 0.5 McFarland standard was prepared and diluted in cation-adjusted Mueller-Hinton broth (CAMHB) to achieve a bacterial concentration of about 5×10^5 CFU/mL and seeded in 96-well plates. Enterococcus faecium was diluted in brain heart infusion broth. Enterococcus faecalis, Streptococcus pneumonia and Listeria monocytogenes were diluted in tryptone soya broth (TSB).

[3] = tested on: NRS123 (MRSA USA400); experiment: MIC/MBC clinical isolate panel (Table 3); assay type: cell-based, S. aureus; details: Staphylococcus aureus, Table 3, NRS123 (MRSA USA400)
Procedure: as §1, §2

[4] = tested on: NRS382 (MRSA USA100); experiment: MIC/MBC clinical isolate panel (Table 3); assay type: cell-based, S. aureus; details: Staphylococcus aureus, Table 3, NRS382 (MRSA USA100)
Procedure: as §1, §2

[5] = tested on: NRS383 (MRSA USA200); experiment: MIC/MBC clinical isolate panel (Table 3); assay type: cell-based, S. aureus; details: Staphylococcus aureus, Table 3, NRS383 (MRSA USA200)
Procedure: as §1, §2

[6] = tested on: NRS384 (MRSA USA300); experiment: MIC/MBC clinical isolate panel (Table 3); assay type: cell-based, S. aureus; details: Staphylococcus aureus, Table 3, NRS384 (MRSA USA300)
Procedure: as §1, §2

[7] = tested on: NRS72 (MSSA); experiment: MIC/MBC clinical isolate panel (Table 3); assay type: cell-based, S. aureus; details: Staphylococcus aureus, Table 3, NRS72 (MSSA)
Procedure: as §1, §2

[8] = tested on: VRE ATCC 700221; experiment: MIC/MBC clinical isolate panel (Table 3); assay type: cell-based, Enterococcus faecium; details: Enterococcus, Table 3, VRE ATCC 700221
Procedure: as §1, with “MRSA clinical isolates, and vancomycin-resistant Staphylococcus aureus (VRSA) strain were obtained through the Network of Antimicrobial Resistance in Staphylococcus aureus (NARSA) program. In addition, vancomycin-resistant Enterococcus faecium (VRE) strain was obtained from the ATCC. Bacteria” for “Bacteria”
The minimum inhibitory concentration (MIC) of tested compounds and control antibiotics were determined using the broth microdilution method in accordance with the recommendations contained in the Clinical and Laboratory Standards Institute guidelines, against methicillin-sensitive (ATCC 6538 and NRS107), methicillin-resistant (MRSA), and vancomycin-resistant (VRSA) Staphylococcus aureus, Staphylococcus epidermidis, Enterococcus faecalis, E. faecium, Listeria monocytogenes, and Streptococcus pneumoniae clinical isolates. A bacterial solution equivalent to 0.5 McFarland standard was prepared and diluted in cation-adjusted Mueller-Hinton broth (CAMHB) to achieve a bacterial concentration of about 5×10^5 CFU/mL and seeded in 96-well plates. Enterococcus faecium was diluted in brain heart infusion broth. Enterococcus faecalis, Streptococcus pneumonia and Listeria monocytogenes were diluted in tryptone soya broth (TSB). Compounds and control drugs were added in the first row of 96-well plates and serially diluted (to achieve a concentration gradient ranging from 128 to 1 μg/mL). Plates were then incubated aerobically at 37° C. for at least 18 hours. The minimum bactericidal concentration (MBC) of the active compounds was tested by plating 5 μL from wells with no growth onto Tryptic soy agar (TSA) plates.

[9] = Plasma pharmacokinetics after single oral dose in rats; assay type: in vivo, Sprague-Dawley (SD) rats
Procedure: This assay has been conducted at a credited bioequivalence center (http://www.grc-me.com/pk_pd.html). Pharmacokinetic studies were performed in male naïve Sprague-Dawley (SD) rats, (three animals) following Institutional Animal Care and Use Committee guidelines. Oral dosing was administered by gavage in a vehicle containing 5% ethanol, 45% PEG 400, and 50% water. Blood samples were collected over a 24 h period post dose into Vacutainer tubes containing EDTA-K2. Plasma was isolated, and the concentration of compound 17 in plasma was determined with LC/MS/MS after protein precipitation with acetonitrile.
Non-compartmental pharmacokinetic analysis was performed on plasma concentration data to calculate pharmacokinetic parameters using Kinetica® 2000 (release 4.4.1).

[10] = tested on: MRSA (USA300); experiment: Time-kill assay; assay type: cell-based, Staphylococcus aureus; details: MRSA US300, 3.0×MIC
Procedure: Aliquots (100 μL) were taken from each sample after 2, 4, 6, 8, 10, 12, and 24 hours, serially diluted in phosphate-buffered saline, and transferred to Trypticase soy agar (TSA) (Becton, Dickinson and Company, Sparks, Md., USA) plates. Plates were incubated at 37° C. for at least 16 hours before counting viable CFU/mL to determine the time required to reduce the bacterial cell count by 3-log10.

[11] = tested on: Caco-2 cells; experiment: Caco-2 bidirectional permeability assay
[12] = Table 6, single oral dose (30 mg/Kg) to rats
[13] = male, Sprague-Dawley, rat, plasma, Table 6, single oral dose (30 mg/Kg) to rats

- improvement in MIC value compared with lead compound 1 ([1]; MRSA (2658 RCMB)): 12 fold
- MIC ([1]; Staphylococcus aureus, Table 1, MRSA (2658 RCMB), read-out: MIC ± SD): 0.4 mg/L (≈ 1.18 µM)
- MIC ± SD ([1]; Table 1, MRSA (2658 RCMB)): 0.40 ± 0.0 mg/L (≈ 1.18 µM)
- MIC ([2]; read-out: MIC): 2 mg/L (≈ 5.89 µM)
- MIC ([3]; read-out: MIC): 2 mg/L (≈ 5.89 µM)
- MIC ([4]; read-out: MIC): 2 mg/L (≈ 5.89 µM)
- MIC ([5]; read-out: MIC): 2 mg/L (≈ 5.89 µM)
- MIC ([6]; read-out: MIC): 2 mg/L (≈ 5.89 µM)
- MIC ([7]; read-out: MIC): 2 mg/L (≈ 5.89 µM)
- MIC ([8]; read-out: MIC): 2 mg/L (≈ 5.89 µM)
- thalf [9, 12]: 8.24 h
- λz [9, 12]: 0.19 h⁻¹
- MRT ([9]; male, Sprague-Dawley, rat, plasma, po, text b112, SD rats, 50 mg/Kg orally, read-out: in vivo mean residence time (MRT)): ~8 h
- AUC [9, 13]: 100 µg·h/mL
- AUC(0-t) [9, 13]: 83.2 µg·h/mL
- Tmax [9, 13]: 4.67 h
- MRT ([9]; male, Sprague-Dawley, rat, plasma, Table 6, single oral dose (30 mg/Kg) to rats, read-out: MRT (mean residence time)): 7.74 h
- Cmax ([9]; male, Sprague-Dawley, rat, po, text b112, SD rats, 50 mg/Kg orally, plasma): 9.3 µg/mL
- Cmax ([9]; male, Sprague-Dawley, rat, Table 6, single oral dose (30 mg/Kg) to rats, plasma): 9.33 µg/mL
- Mean A→B Papp ([11]; Caco-2, apical to basolateral): 16 nm/s
- Mean B→A Papp ([11]; Caco-2, basolateral to apical): 28 nm/s
- Efflux ratio ([11]; Papp (B→A)/Papp (A→B)): 1.8
Structure (SMILES): CCCCc1ccc(-c2nc(C)c(-c3ccnc(NN)n3)s2)cc1 [Compound 17, 2-(4-Butylphenyl)-5-(2-hydrazinopyrimidin-4-yl)-4-methylthiazole]
- antibacterial (anti-MRSA) activity, in words ([1]; Table 1): more potent than vancomycin
- MBC [2]: 2 mg/L (≈ 5.89 µM)
- MBC [3]: 2 mg/L (≈ 5.89 µM)
- MBC [4]: 4 mg/L (≈ 11.8 µM)
- MBC [5]: 2 mg/L (≈ 5.89 µM)
- MBC [6]: 2 mg/L (≈ 5.89 µM)
- MBC [7]: 8 mg/L (≈ 23.6 µM)
- MBC ([8]; read-out: MBC): 8 mg/L (≈ 23.6 µM)
- time required to reduce the MRSA inoculum to zero colony forming units [10]: ≤ 2 h

Reference: patent US10414759B2, “Phenylthiazoles and uses thereof” (Purdue Research Foundation, priority 2017, dated 2019)
